Test results: patent EP0611765A1, “2-(Imidazol-1-yl)-3-heteroarylpropylidene-aminoxyalkanoic acid derivatives” (PHARMACIA S.p.A., priority 1993, dated 1994)

Assays:
[1] = molecular target: T1, TxA₂ Synthase (Rattus norvegicus, UniProt P49430); experiment: In vitro effects on TxB₂ production in rat whole blood during clotting (RIA); format: cell-based; conditions: result in words
T1 construct: Blood was withdrawn from the abdominal aorta of the animals under light ether anesthesia; from tissue; host or cells: rat whole blood (clotting; platelets)
T1 sequence (P49430 1-533): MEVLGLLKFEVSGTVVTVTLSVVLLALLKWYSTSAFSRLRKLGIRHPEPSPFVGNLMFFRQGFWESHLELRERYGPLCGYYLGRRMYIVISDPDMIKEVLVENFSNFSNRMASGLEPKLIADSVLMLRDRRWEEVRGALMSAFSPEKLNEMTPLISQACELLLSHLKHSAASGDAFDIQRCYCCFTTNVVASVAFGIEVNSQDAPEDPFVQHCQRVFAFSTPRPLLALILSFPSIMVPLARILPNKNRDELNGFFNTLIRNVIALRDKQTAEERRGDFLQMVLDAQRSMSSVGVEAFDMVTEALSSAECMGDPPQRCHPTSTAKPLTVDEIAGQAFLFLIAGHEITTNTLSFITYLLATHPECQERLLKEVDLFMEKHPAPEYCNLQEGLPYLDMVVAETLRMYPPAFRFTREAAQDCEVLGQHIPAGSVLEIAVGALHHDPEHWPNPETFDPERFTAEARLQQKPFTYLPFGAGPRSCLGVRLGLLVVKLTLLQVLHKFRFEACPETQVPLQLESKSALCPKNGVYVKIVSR
Method: The compounds of formula (I) were for example tested for their ability to inhibit TxA₂ Synthase activity (as reflected by TxB₂ generated in whole blood during clotting or in isolated glomeruli) in vitro in the rat.
The in vitro experiments were carried out as follows: The effect of the compounds on TxA₂ synthesis was evaluated in serum.
Blood was withdrawn from the abdominal aorta of the animals under light ether anesthesia.
Samples were then allowed to clot for 1 h at 37°C, centrifuged at 3000 rpm for 10 min, serum collected and stored at -20°C until assayed. TxB₂ levels were determined by RIA according to previously described procedures [Patrono et al. - Thromb.

[2] = molecular target: T2, TxA₂ synthase (Homo sapiens, UniProt P24557); conditions: statement on the known compound; cited from earlier work
T2 sequence (P24557 1-533): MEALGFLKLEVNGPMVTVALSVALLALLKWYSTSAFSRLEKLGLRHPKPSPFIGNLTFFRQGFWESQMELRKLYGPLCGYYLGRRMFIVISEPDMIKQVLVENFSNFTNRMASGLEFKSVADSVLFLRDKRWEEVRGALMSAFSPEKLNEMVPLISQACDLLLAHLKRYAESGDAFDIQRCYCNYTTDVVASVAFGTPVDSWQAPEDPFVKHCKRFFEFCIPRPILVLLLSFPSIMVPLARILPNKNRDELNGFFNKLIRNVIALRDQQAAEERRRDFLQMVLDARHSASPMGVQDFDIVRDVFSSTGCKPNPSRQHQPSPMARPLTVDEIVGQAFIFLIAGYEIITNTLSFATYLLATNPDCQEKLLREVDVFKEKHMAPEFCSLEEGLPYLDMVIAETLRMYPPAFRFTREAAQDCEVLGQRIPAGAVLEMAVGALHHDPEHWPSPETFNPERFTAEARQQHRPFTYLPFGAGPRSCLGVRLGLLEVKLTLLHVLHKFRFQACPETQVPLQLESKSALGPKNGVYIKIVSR

For `O=C(O)CCCCO/N=C(\C1CCCCC1)C(Cc1cnccn1)n1ccnc1` (racemic) [FCE 27751, (±)-(E)-5-[2-pyrazinylmethyl-2-(imidazol-1-yl)-1-cyclohexylethylidene]aminoxypentanoic acid], the “inhibitory activity on TxA₂ synthesis” value [1] was “marked inhibitory activity”.
In the case of `O=C(O)COc1ccc(CCNS(=O)(=O)c2ccccc2)cc1` [BM 13177, Sulotroban], the “TxA₂ synthase inhibitory activity” value [2] is listed as “devoid of TxA₂ synthase inhibitory activity”.
